Experimental data reported in PMC9024597, “The Biological Fate of a Novel Anticancer Drug Candidate TNBG-5602: Metabolic Profile, Interaction with CYP450, and Pharmacokinetics in Rats” (Molecules, 2022).

Experiment: Pharmacokinetics in rats after a single intravenous administration
Procedure: Sample separation was carried out on a CSH C18 Column (3.0 × 75 mm, 1.7 μm). The mobile phase consisted of Eluent A (0.1% aqueous formic acid) and Eluent B (acetonitrile: methanol, 80:20, v/v) at a flow rate of 0.4 mL min^−1. […] The column temperature was set to 35 °C. The injection volume was 5 μL. The optimized spectrometric parameters were set as follows: a capillary voltage of 4 kV, gas temperature of 300 °C, gas flow rate of 5 L min^−1, nebulizer of 45 Psi, sheath gas temperature of 250 °C, and sheath gas flow rate of 10 L min^−1. The UPLC-MS/MS data were acquired and processed using the Mass Hunter MS Optimizer software (version B.07.00). Detection was performed under multiple reaction monitoring (MRM) mode with the positive-ion electrospray-ionization (ESI) mode.
For the pharmacokinetic analyses, five rats were administered at a dose of 4.8 mg kg^−1 body weight via the caudal vein.
The whole blood samples were immediately centrifuged at 13,000 rpm for 5 min upon collection, and the supernatants were stored at −80 °C until analysis.
Obtained plasma (50 μL) was thawed and spiked with 50 μL of the IS working solution (50 ng mL^−1). The mixture was deproteinized and extracted using 1 mL of acetonitrile by using a vortex for 2 min.

[1] = rats, i.v. 4.8 mg kg^−1, non-compartment model, mean, n = 5
[2] = rats, i.v. 4.8 mg kg^−1, two-compartment model, mean, n = 5

- k el (rat, in vivo, iv, 4.8 mg/kg): 6.67e-05 s⁻¹
- half-life (rat, plasma, iv, 4.8 mg kg^−1, half-life, rats): ~12 h
- Cmax (rat, plasma, iv, 4.8 mg/kg): 171 ng/mL
- MRT inf (rat, plasma, iv, 4.8 mg/kg): 15.5 h
- MRT last (rat, plasma, iv, 4.8 mg/kg): 7.13 h
- Vd (rat, plasma, iv, 4.8 mg/kg): 20.2 L
- clearance (rat, plasma, iv, 4.8 mg/kg, CL (clearance), rats, i.v. 4.8 mg kg^−1, two-compartment model, mean, n = 5): 22 mL/min
- clearance (rat, plasma, iv, 4.8 mg/kg, CLt (total body clearance), rats, i.v. 4.8 mg kg^−1, non-compartment model, mean, n = 5): 19 mL/min
- Tmax (rat, plasma, iv, 4.8 mg/kg, Tmax, rats, i.v. 4.8 mg kg^−1, non-compartment model, mean, n = 5): ≤ 5 min
- half-life (rat, plasma, iv, 4.8 mg/kg, t1/2, rats, i.v. 4.8 mg kg^−1, non-compartment model, mean, n = 5): 11.6 h
- half-life (rat, plasma, iv, 4.8 mg/kg, t1/2β (elimination half-life), rats, i.v. 4.8 mg kg^−1, two-compartment model, mean, n = 5): 11.8 h
- AUC(0–t) [1]: 45513 µg·min/L
- AUC(0–∞) [1]: 56248 µg·min/L
- t1/2 [1]: 11.56 h
- A (zero-time intercept of the α distribution phase) [2]: 127.2 µg/L
- B (zero-time intercept of the elimination phase) [2]: 57.6 µg/L
- K12 (transfer rate constant central to peripheral compartment) [2]: 0.028 min⁻¹
- K21 (transfer rate constant peripheral to central compartment) [2]: 0.019 min⁻¹
- Vc (apparent volume of the central compartment) [2]: 6.985 L
- Vp (apparent volume of the peripheral compartment) [2]: 13.2 L
- t1/2α [2]: 0.457 h
- distribution volume of the peripheral compartment relative to the central compartment (rats, i.v., two-compartment model): 1.88 fold
- in vivo clearance as % liver blood flow in rats (rats, i.v., liver blood flow ref 19): 200%
- apparent volume of distribution relative to total body water in rats (rats, i.v., total body water ref 19): approximately 155 fold
- apparent clearance rate from the central compartment to the peripheral compartment (rats, single i.v. administration): 0.028 ± 0.033 L/min
SMILES: CN(C)CCN1CC2c3ccccc3CCN2c2nc3ccccc3nc21 (stereo not shown) [TNBG-5602]
